Assay results as given in USRE35706E, “Lipophila derivatives of muramylpeptides having properties of activating macrophages and compositions containing them” (priority 1984, dated 1997).
Where “and” joins values, the source holds several entries; their conditions need not be identical. Identical values can stand only once.

Tests used:
[1] = system: Klebsiella pneumoniae; assay: Anti-infectious activity in mice infected with Klebsiella pneumoniae; assay type: in vivo; conditions: for protective activity against lethal Klebsiella pneumoniae infection in the mouse (in words): summary of observations
[2] = Retention of the muramylpeptide in liposomes suspended in MEM-FCS medium; assay type: physicochemical; conditions: liposomes in MEM-FCS medium at 37° C.
Experimental: Liposomes produced under the same conditions, but with muramylpeptides labeled with tritium have enabled the following observations. […] The incorporation of the MDP-GDP and the stability of the latter, has also been verified in reaction tests with anti-MDP monoclonal antibodies. After incubation of these liposomes in the same medium at 37° C. for 72 hours, there is observed a constant agglutination of the liposomes with the antibody (95% of the liposome being agglutinated), this observation bearing witness to the practical absence of any loss of MDP-GDP. […] The leakage, if it was produced, would have been manifested by a decrease in the intensity of agglutination with time.

[3] = Pyrogenicity measurements on rabbits (European Pharmacopoea); assay type: in vivo, rabbit; conditions: 1 mg/kg; groups of three rabbits, one value per animal; listed as 6 -0-GDP-MDPG-OnBu
Source text: Certain of the compounds according to the invention show at relatively high doses, a certain pyrogenicity, whose impact is however reduced, taking into account the particularly higher therapeutic index from which they appear to benefit. This being the case, the muramylpeptides in which the group of modification by the two lipophile chains is fixed to the 6 position of the saccharide group, and of which the peptide chain is terminated by a glutamy-alpha-ester-gamma-amide group, are particularly advantageous by reason of their more reduced pyrogenicity. Testimony thereof is borne by comparative pyrogenicity measurements carried out on groups of three rabits with the two compounds more particularly studied, according to the procedure of the European Pharmacopoea, Vol. 2, 1971, pages 58-60. In fact, the following results are obtained, expressed by temperature observations observed in experimental animals to which had previously been administered 1 mg/kg of the compounds studied: for the MDP-GDP : 1°;0.9° and 1° C.; for the 6 -0-GDP-MDPG-OnBu : 0.2°; 0.3° and 0.5° C.

[4] = system: bovine serumal-bumin; assay: Adjuvant activity in the Swiss female mouse (passive hemagglutination titer); assay type: in vivo; conditions: for Primary response 1.21: 100 micrograms with 500 micrograms bovine serum albumin at day 0, serums titrated in pools at day 21; for Secondary response 1.36: booster of 100 micrograms antigen alone at day 30, serums titrated separately at day 36
Experimental: At day 0, 100 micrograms of C474 were injected with 500 micrograms of bovine serumal-bumin. At day 30, the animals received a booster of 100 micrograms of antigen alone. The following results were obtained:
The titers are expressed in Log 2 of the passive hemagglutination titer. At day 21, the serums were titrated in pools; at day 36, they were titrated separately.

[5] = system: Candida albicans; assay: Protective action in mice infected with Candida albicans; assay type: in vivo
[6] = Table X, 100 μg i.v. at day -1 (dose not given for MDP-L-Ala-GDP), 10^4 K. pneumoniae
[7] = Table XI, 100 μg/day/4 days i.v. (days -4, -3, -2 and -1), 2 × 10^6 Candida albicans

For “6-O-(beta, gamma-dipalmitoyl-L-glycerol)-capryl-N-acetyl-muramyl-L-alanyl-D-glutamine -n-butyl ester [6-0-GDP-aminocaproyl-MDPG-OnBu]”, the “Protection (%)” value [1, 6] was 56%, the “Survival (15 d)” value [1, 6] was 9/16 and the “retention of the muramylpeptide in the liposomes (in words)” value (shortened to “retention of the muramylpeptide”) [2] was “Quite similar observations”.
With “6-O-(beta, gamma-dipalmitoyl-L-glyceryl)-N-acetyl-muramyl-L-alanyl-D-glutamine-n-buty l-ester [6-O-GDP-MDPG-OnBu]” the “pyrogenicity, temperature observations in experimental animals” value [3] was 0.2 °C and 0.3 °C and 0.5 °C, the “Primary response 1.21” value [4] was 2.64 Log 2 of the passive hemagglut and the “Secondary response 1.36” value [4] was 8.6 Log 2 of the passive hemagglut. For the same molecule, the “Protection (%)” value ([1]; Table VII, aqueous suspension, 100 μg i.v. at day -1, 10^4 K. pneumoniae) was 68.7%, the “Survival (15 d)” value ([1]; Table VII, aqueous suspension, 100 μg i.v. at day -1, mice infected i.v. with 10^4 K. pneumoniae) was 22/32 and the “protective activity against lethal Klebsiella pneumoniae infection in the mouse (in words)” value (shortened to “protective activity … in the mouse (in words)”) [1] was “protective activity comparable”. For the same molecule, the “retention of the muramylpeptide” value [2] was “Quite similar observations”.
With `C[C@@H]1[C@H](O)[C@@H](C)/C=C/C=C/C=C/C=C/C=C/C=C/C=C/[C@H](O[C@@H]2O[C@H](C)[C@@H](O)[C@H](N)[C@@H]2O)C[C@@H]2O[C@](O)(C[C@@H](O)C[C@@H](O)[C@H](O)CC[C@@H](O)C[C@@H](O)CC(=O)O[C@H]1C)C[C@H](O)[C@H]2C(=O)O` [Amphotericin B, reference compound] the “Survival (10 d)” value ([5]; Table XI, Amphotericin B 3 μg subcutaneously on the day of infection, 2 × 10^6 Candida albicans i.v.) was 2/16.
With `CCCCCCCCCCCCCCCC(=O)OCC(COC(=O)[C@H](C)NC(=O)CC[C@@H](NC(=O)[C@@H](C)NC(=O)[C@@H](C)O[C@H]1[C@H](O)[C@@H](CO)OC(O)[C@@H]1NC(C)=O)C(N)=O)OC(=O)CCCCCCCCCCCCCCC` (stereo partly drawn) [MDP(D,D)-L-Ala-GDP, alpha (N-acetyl-muramyl-D-alanyl-D-isoglutaminyl-L-alanine) beta, gamma-dipalmitoyl-sn-glycerol] the “Protection (%)” value [1, 6] was 25%, the “protective activity … in the mouse (in words)” value [1] was “although active, is less so than MDP-L-Ala-GDP” and the “retention of the muramylpeptide” value [2] was “Quite similar observations”.
With `CCCCCCCCCCCCCCCC(=O)OC[C@@H](COC(=O)CC[C@@H](NC(=O)[C@H](C)NC(=O)[C@@H](C)O[C@H]1[C@H](O)[C@@H](CO)OC(O)[C@@H]1NC(C)=O)C(N)=O)OC(=O)CCCCCCCCCCCCCCC` (stereo partly drawn) [MDP-GDP, alpha (N-acetyl-muramyl-L-alanyl-D-isoglutamine), beta, gamma-dipalmitoyl-sn-glycerol] the “Primary response 1.21” value [4] was 3.64 Log 2 of the passive hemagglut, the “Secondary response 1.36” value [4] was 10.27 Log 2 of the passive hemagglut and the “Protection (%)” value ([1]; Table IX, 30 μg intravenously 24 hours before infection, 5 × 10^4 K. pneumoniae) was 16%. The “protective activity when injected in liposomes (in words)” value ([1]; in liposomes, at 0.1 microgram) was “the most active”, the “protective activity … in the mouse (in words)” value [1] was “protective activity comparable” and the Protection ([5]; Table XI, 100 μg/day/4 days i.v.) was 19. For the same molecule, the “Survival (10 d)” value [5, 7] was 2/16, the Protection ([5]; Table XII, aqueous suspension 100 μg × 4) was 75% and the “Survival (10 d)” value ([5]; Table XII, aqueous suspension 100 μg × 4 (days -4, -3, -2, -1), 10^6 Candida albicans) was 6/8.
With `CCCCCCCCCCCCCCCC(=O)OCC(COC(=O)[C@H](C)NC(=O)CC[C@@H](NC(=O)[C@H](C)NC(=O)[C@@H](C)O[C@H]1[C@H](O)[C@@H](CO)OC(O)[C@@H]1NC(C)=O)C(N)=O)OC(=O)CCCCCCCCCCCCCCC` (stereo partly drawn) [MDP-L-Ala-GDP, alpha (N-acetyl-muramyl-L-alanyl-D-isoglutaminyl-L-alanine), beta, gamma-dipalmitoyl-sn-glycerol] the “Protection (%)” value [1, 6] was 63% and the “retention of the muramylpeptide” value [2] was “Quite similar observations”.
In the case of Gentamicin [reference compound], the “Protection (%)” value ([1]; Table IX, Gentamicin 10 μg subcutaneously 2 hours after infection, 5 × 10^4 K. pneumoniae) is reported as 21%.
In the case of “alpha (N-acetyl-muramyl-D-alanyl-D-isoglutamine), beta, gamma-dipalmitoyl-sn-glycerol [MDP (D-D) - GDP]”, the “protective activity … in the mouse (in words)” value [1] is reported as “protective activity comparable”, the “Survival (10 d)” value [5, 7] is reported as 0/16 and the “retention of the muramylpeptide” value [2] is reported as “Quite similar observations”.
